We go through two compounds from US9284576B2, “In vitro hepatic differentiation” (Cambride Enterprise Limited, priority 2010, dated 2016).

Peptide text beside a SMILES is read from it. * marks the point of attachment. Cbz = O=C(OCc1ccccc1)*

For experiment [1], the system named is α1-antitrypsin deficient dhIPSC derived hepatocytes. Nature of the experiment: proteosome blocking assay with ELISA for α1-antitrypsin. Format: cell-based, human. The note with it: MG132 added to medium overnight (16 hours), A1ATD vs control hIPSC derived hepatocytes, FIG. 10. Here is the method: High binding surface COSTAR 96-well plates (Corning, N.Y., USA) were coated overnight with affinity-purified rabbit polyclonal antibodies against α1-antitrypsin (Abcam 31657, Cambridge, UK) at 2 μg/ml in carbonate/bicarbonate buffer (Na2CO3/NAHCO3, pH 9.5). After washing (0.9% w/v NaCl, 0.05% v/v Tween 20), the plates were blocked for two hours in blocking buffer (PBS, 0.25% w/v BSA, 0.05% v/v Tween 20). Samples (culture medium or cells lysed in 50 μl of Nonidet lysis buffer (150 mM NaCl, 50 mM Tris-Cl, pH 7.5, 1% (v/v) Nonidet P-40), and standards (plasma purified M or Z α1-antitrypsin) were diluted in blocking buffer and 50 μl added to each well then incubated for two hours. After washing, the wells were incubated with either 9C5 or 2C1 monoclonal antibodies (1 μg/ml diluted in blocking buffer), and incubated for two hours. Bound monoclonal antibodies were detected with rabbit anti-mouse IgG HRP-labelled antibody (Sigma Aldrich, Haverhill, UK, 1:20,000) for one hour. The reaction was developed with TMB liquid substrate (Sigma Aldrich, Haverhill, UK) for 10 minutes in the dark and the reaction was stopped with 1 M H2SO4. Absorbance was read at 450 nm on a Thermo-max microplate reader (Molecular Devices, Sunnyvale, Calif., U.S.A.). […]
A general note: An ELISA detects its analyte on a solid surface through an enzyme-linked reagent.

The test system of experiment [2] is dhIPSC derived hepatocytes. Nature of the experiment: Metabolic enzyme response to glucagon stimulation (qRT-PCR of PEPCK, G6P, IGFBP1). Format: cell-based, human. The note with it: 100 nM glucagon hydrochloride; 0, 1, 2 and 3 hours after stimulation; FIG. 16. Here is the method:
dhIPSC derived hepatocytes were incubated for six hours in serum-free, high-glucose DMEM supplemented with 2 mM L-glutamine, […] penicillin, 100 ug/ml streptomycin, and 0.5% Bovine Serum Albumin (all from Sigma-Aldrich). Cells were stimulated with 100 nM glucagon […] hydrochloride (Novo Nordisk, Bagsvard, Denmark) or PBS (Sigma-Aldrich) as a negative control. Total RNA was harvested using the RNeasy Kit (Qiagen, Hilden, Germany) at 0, 1, 2 or 3 hours after stimulation and purified as per manufacturer's guidelines. Reverse transcription was performed on 1 ug RNA in a 25 μl reaction mixture containing 2000 Moloney Murine Leukemia Virus Reverse Transcriptase, 500 ng random primers and 0.5 mM deoxynucleotide triphosphates (all from Promega, Wis., Ma) as per manufacturer's guidelines. cDNA was subjected to real-time quantitative PCR on an ABI7900 detection system (Applied Biosystems, Foster City, Calif.) using Tagman PCR Mastermix (Applied Biosystems) and gene-specific forward and reverse primers and fluorogenic probes. All results were normalised to human 36B4 as a reference gene. Primers and probes for PEPCK (Hs00159918—1), G6P (Hs00609178—1) and IGFBP1 (Hs00426285 ml) were purchased as premade stocks from Applied Biosystems. Oligonucleotides for 36B4 were designed in-house and synthesised by Sigma-Aldrich (Forward, 5′-[…]-3′; Reverse, 5′-[…]-3′; Probe, 5′-[JOEE][…][TAMRA]-3′).

`CC(C)C[C@@H](C=O)NC(=O)[C@H](CC(C)C)NC(=O)[C@H](CC(C)C)NC(=O)OCc1ccccc1` [MG132] (Cbz-Leu-Leu-Leu-aldehyde): the “intracellular α1-antitrypsin polymers after proteasome inhibition” value in experiment [1] is on record as “disease specific intracellular increase in α1-antitrypsin polymers”. For glucagon hydrochloride, the “expression of glucagon-responsive genes PEPCK, G6P and IGFBP1” value in experiment [2] is listed as “induction of expression of three canonical glucagon-responsive genes”.
